Measured values: patent US20030065039A1, “Biologically active 1,3-bis-aromatic-prop-2-en-1-ones, 1,3-bis-aromatic-propan-1-ones, and 1,3-bis-aromatic-prop-2-yn-1-ones” (Statens Serum Institute, priority 1997, published 2003)
Like-named read-outs stand apart in the source and are kept apart here.

Key:
Type in all cases: cell-based
[1] = system: Leishmania promastigotes; assay: Leishmania promastigotes Assay; details: read-out: Leishmania IC50 ± SD
Protocol: A WHO reference vaccine strain of L. major originally isolated from a patient in Iran and a Kenyan strain of L. donovani (MHOM(/KE/85/NLB 274) were cultured in medium 199 containing 0.02 mg/ml gentamycin, 25 mM Hepes, 4 mM L-glutamine, and 20% heat inactivated fetal calf serum (FCS). Incubation was carried out at 26° C. Promastigotes were harvested on day 3 and 6 of the culture and used for the parasite growth inhibition.
The effect of the test compounds on promastigotes was assessed by a method similar to the one described by Pearson et al., by incubating promastigotes (3×10^6/ml) at 26° C. for 2 hrs in the presence of a given compound or the medium alone in 96 wells flat bottom microtiter plates. Following incubation, 100 μCi of 3H-thymidine was added to each well and further incubated for 18 hrs. Promastigotes were then harvested on filter paper by means of a cell harvester, extensively washed with distilled water and counted in a scintillation counter. The promastigotes were also counted microscopically and their flagellar motility was assessed.

[2] = system: human lymphocytes; assay: Lymphocyte Proliferation Assay; details: read-out: Lymphocytes IC50 ± SD
Protocol: Human blood mononuclear cells (BMNC) from heparinized blood were isolated by metrizoate sodium-Ficoll density gradient centrifugation, washed 3 times in RPMI 1640 medium supplemented with 5% FCS and with 400 IU of penicillin plus 400 μg/ml streptomycin. BMNC were resuspended in the medium and cultured in triplicate, 0.63×10^5/ml and 160 μl per vial, in round-bottom microtiter plates with 20 μl of various concentrations of the test compound. Immediately prior to incubation, optimum concentrations of the mitogen phytohaemagglutinin (PHA) and the antigen purified protein derivative of tuberculin (PPD) were added to the cultures in a volume of 20 μl. Unstimulated control cultures were always included. Cultures were incubated for 3 or 7 days. The degree of lymphocyte proliferation was estimated by ^3H-thymidine (1 μCi per well) addition 24 h before the cells were harvested on glass fiber filters by means of a harvesting machine), and ^3H-thymidine incorporation was measured in a liquid scintillation counter. For each set of triplicate values, the median was recorded. Unstimulated cultures were always included as controls.

[3] = system: Plasmodium falciparum; assay: Plasmodium falciparum Assay; details: 3-H-hypoxanthine incorporation, 48 hours, read-out: Plasmodium IC50 ± SD
Protocol: The experiments in which compounds were tested for their ability to inhibit parasite growth were performed by a modification of the method originally described by Jensen et al. (1982). 50 μl of parasitized erythrocytes (parasitemia approximately 1%) in a concentration of 5×10^8/ml and 50 μl of RPMI medium containing different concentrations of the test compound was added to each well of a 96 well flat-bottomed microtiter plate. The cultures were then incubated for 48 hours, 24 hours before termination of the culture adding 20 μl of 3-H-hypoxanthine (40 uCi/ml) was added to each well. The cultures were then harvested onto glass fiber filters using a Skatron cell harvester, and the incorporation of 3-H-hypoxanthine into the DNA of dividing parasites was determined by liquid scintillation spectrometry. Control cultures with uninfected erythrocytes and infected erythrocytes in RPMI medium without test compounds were always performed in parallel to the test cultures. In some experiments thin smears of parasite cultures were stained by Giemsa and examined under microscope (×1000). The test compounds described above, were diluted in RPMI medium immediately before use. In the experiments, chloroquine phosphate was used as a positive control as a drug known to inhibit parasite growth.

[4] = Leishmania, promastigotes, 3H-thymidine uptake
[5] = Lymphocyte, PHA provoked proliferation of human lymphocytes
[6] = promastigotes, 3H-thymidine uptake
[7] = PHA provoked proliferation of human lymphocytes

Row | Structure (SMILES) | IC50 [1, 4] [µM] | IC50 [2, 5] [µM] | IC50 ([3]; Plasmodium falciparum) [µM] | IC50 [1, 6] [µM] | IC50 [2, 7] [µM] | IC50 [3] [µM] | also measured
1 | COc1cccc(/C=C/C(=O)c2ccc(O)cc2)c1OC [2,3-OCH3-4′-OH, 2,3-dimethoxy-4′-hydroxychalcone] | 89 ± 9 | 70 ± 4 | 25 |  |  |  | 
2 | C=CCOc1ccc(C(=O)/C=C/c2cccc(OC)c2OC)cc1 [2,3-OCH3-4′-allyloxy] |  |  |  | 49 ± 3 | 96 ± 6 | 26 | 
3 | COc1ccc(/C=C/C(=O)c2ccccc2OC)c(OC)c1 [2,4,2′-OCH3] |  |  |  | 16 ± 1 | 26 ± 2 |  | 
4 | COc1cc(OC)c(OC)cc1/C=C/C(=O)c1ccc(O)cc1 [2,4,5,-OCH3-4′-OH] |  |  |  | 16 ± 2 | 28 ± 2 | 13 | 
5 | COc1cc(OC)c(/C=C/C(=O)c2ccc(O)cc2)c(OC)c1 [2,4,6-OCH3-4′-OH] |  |  |  | 106 ± 8 | 44 ± 2 |  | 
6 | COc1ccc(/C=C/C(=O)c2ccccc2O)c(OC)c1 [2,4-OCH3-2′-OH] |  |  |  | 35 ± 2 | 144 ± 9 | 28 | 
7 | C=CCOc1ccccc1C(=O)/C=C/c1ccc(OC)cc1OC [2,4-OCH3-2′-allyloxy] |  |  |  | 5 ± 0.7 |  |  | 
8 | CCCCOc1ccc(C(=O)/C=C/c2ccc(OC)cc2OC)cc1 [2,4-OCH3-4′-OC4H9, 2,4-dimethoxy-4′-butoxychalcone] | 95 ± 10 |  |  |  |  |  | 
9 | CCCCCCOc1ccc(C(=O)/C=C/c2ccc(OC)cc2OC)cc1 [2,4-OCH3-4′-OC6H13] |  |  |  | 136 ± 15 |  | 14 | 
10 | COc1ccc(/C=C/C(=O)c2ccccc2)c(OC)c1 [2,4-OCH3] |  |  |  | 15 | 48 ± 2 | 34 | 
11 | C=CCOc1ccc(C(=O)/C=C/c2cc(OCC=C)ccc2OCC=C)cc1 [2,5,4′-allyloxy] |  |  |  | 38 ± 2 | 61 ± 3 |  | 
12 | COc1ccc(OC)c(/C=C/C(=O)c2ccc(O)cc2)c1 [2,5-OCH3-4′-OH, 2,5-dimethoxy-4′hydroxychalcone] | 23 ± 2 | 22 ± 1 |  |  |  |  | 
13 | C=CCOc1ccc(C(=O)/C=C/c2cc(OC)ccc2OC)cc1 [2,5-OCH3-4′-allyloxy] |  |  |  | 73 ± 4 | 55 ± 2 | 23 | 
14 | CCCCOc1ccc(C(=O)/C=C/c2c(OC)cccc2OC)cc1 [2,6-OCH3-4′-OC4H9, 2,6-dimethoxy-4′-butoxychalcone] | 104 ± 9 | 127 ± 10 | 14 |  |  |  | 
15 | COc1cccc(OC)c1/C=C/C(=O)c1ccc(O)cc1 [2,6-OCH3-4′-OH] |  |  |  | 82 ± 8 | 60 ± 2 |  | 
16 | C=CCOc1ccc(C(=O)/C=C/c2c(OC)cccc2OC)cc1 [2,6-OCH3-4′-allyloxy] |  |  |  | 81 ± 7 | 96 ± 8 |  | 
17 | COc1c(/C=C/C(=O)c2ccc(O)cc2)ccc(O)c1C [2-OCH3-3-methyl-4,4′-OH, 2-methoxy-3-methyl-4,4′-dihydroxychalcone] | 22 ± 3 | 27 ± 4 | 33 |  |  |  | 
18 | COc1cc(O)ccc1/C=C/C(=O)c1ccc(O)cc1 [2-OCH3-4,4′-OH, 2-methoxy-4,4′-dihydroxychalcone] | 68 ± 4 | 94 ± 4 | 19 |  |  |  | 
19 | CCCCCCc1cc(/C=C/C(=O)c2ccc(O)cc2)c(OC)cc1O [2-OCH3-4,4′-OH-5-hexyl, 2-methoxy-4,4′-dihydroxy-5-hexylchalcone] | 9.7 ± 0.9 | 46 ± 3 | 5.1 |  |  |  | 
20 | CCCc1cc(/C=C/C(=O)c2ccc(O)cc2)c(OC)cc1O [2-OCH3-4,4′-OH-5-propyl, 2-methoxy-4,4′-dihydroxy-5-propylchalcone] | 26 ± 2 | 41 ± 3 | 10 |  |  |  | 
21 | COc1cc(O)cc(C)c1/C=C/C(=O)c1ccc(O)cc1 [2-OCH3-4,4′-OH-6-methyl, 2-methoxy-4,4′-dihydroxy-6-methylchalcone] | 39 ± 5 | 53 ± 6 | 28 |  |  |  | 
22 | COc1cc(O)ccc1/C=C/C(=O)c1ccc(N(C)C)cc1 [2-OCH3-4-OH-4′-N(CH3)2] |  |  |  | 49 ± 4 | 111 ± 7 | 23 | 

Row | Structure (SMILES) | IC50 [1, 4] [µM] | IC50 [2, 5] [µM] | IC50 ([3]; Plasmodium falciparum) [µM] | IC50 [1, 6] [µM] | IC50 [2, 7] [µM] | IC50 [3] [µM] | also measured
23 | COc1ccc(C(=O)/C=C/c2ccc(Cl)cc2Cl)c(OC)c1OC [2′,3′,4′-OCH3-2,4-Cl] |  |  |  | 6.3 ± 0.6 | 7.8 ± 0.9 | 7.9 | 
24 | O=C(/C=C/c1ccc(O)c(O)c1)c1ccc(O)cc1O [2′,4′,3,4-OH] |  |  |  | 66 ± 2 | 16 ± 1 | 49 | 
25 | COc1cc(/C=C/C(=O)c2ccc(O)cc2O)ccc1O [2′,4′,4-OH-3-OCH3] |  |  |  | 16 ± 2 | 31 ± 2 | 43 | 
26 | COc1ccc(/C=C/C(=O)c2ccc(F)cc2F)c(OC)c1 [2′,4′-F-2,4-OCH3] |  |  |  | 26 ± 2 | 74 ± 4 | 49 | 
27 | COc1ccc(C(=O)/C=C/c2ccc(F)c(F)c2)c(OC)c1 [2′,4′-OCH3-3,4-F] |  |  |  | 16 ± 1 | 5.3 ± 0.6 | 10 | 
28 | COc1ccc(OC)c(C(=O)/C=C/c2ccc(Cl)cc2Cl)c1 [2′,5′-OCH3-2,4-Cl] |  |  |  | 7.8 ± 0.7 | 5.7 ± 0.5 |  | 
29 | COc1ccc(/C=C/C(=O)c2ccccc2Br)c(OC)c1 [2′-Br-2,4-OCH3, 2,4-dimethoxy-2′-bromochalcone] | 14 ± 2 | 35 ± 3 | 26 |  |  |  | 
30 | C=CCOc1ccc(C(=O)/C=C/c2cc(OC)c(OC)c(OC)c2)cc1 [3,4,5-OCH3-4′-allyloxy] |  |  |  | 41 ± 4 | 30 ± 1 |  | 
31 | CCCCOc1ccc(C(=O)/C=C/c2cc(OC)cc(OC)c2)cc1 [3,5-OCH3-4′-OC4H9] |  |  |  | 35 ± 3 | 52 ± 3 | 17 | 
32 | COc1cc(/C=C/C(=O)c2ccc(O)cc2)cc(OC)c1 [3,5-OCH3-4′-OH] |  |  |  | 12 ± 1 | 14 ± 1 | 25 | 
33 | COc1ccc(C(=O)/C=C/c2cccc(F)c2)c(OC)c1OC [3-F-2′,3′,4′-OCH3, 3-fluoro-2′,3′,4′-trimethoxychalcone] | 9.7 ± 0.9 | 6.4 ± 0.4 | 29 |  |  |  | 
34 | COc1ccc(C(=O)/C=C/c2cccc(Oc3ccccc3)c2)c(OC)c1OC [3-OC6H5-2′,3′,4′-OCH3, 3-phenoxy-2′,3′,4′-trimethoxychalcone] | 8.7 ± 0.5 | 17 ± 1 | 8.9 |  |  |  | 
35 | COc1ccc(/C=C/C(=O)c2cccc(Br)c2)c(OC)c1 [3′-Br-2,4-OCH3] |  |  |  | 16 ± 1 | 37 ± 2 | 17 | 
36 | C=CCOc1ccc(C(=O)/C=C/c2cc(OC)c(CCCC)c(OC)c2)cc1 [4-C4H9-3,5-OCH3-4′-allyloxy, 4-butyl-3,5-dimethoxy-4′-(2-propenyloxy)chalcone] | 90 ± 14 |  |  |  |  |  | 
37 | C=CCOc1ccc(C(=O)/C=C/c2cc(OC)c(CCCCCC)c(OC)c2)cc1 [4-C6H13-3,5-OCH3-4′-allyloxy, 4-hexyl-3,5-dimethoxy-4′-(2-propenyloxy)chalcone] | 19 ± 4 | 15 ± 1 | 11 |  |  |  | 
38 | COc1ccc(C(=O)/C=C/c2ccc(N(C)C)cc2)c(OC)c1OC [4-N(CH3)2-2′,3′,4′-OCH3, 4-dimethylamino-2′,3′,4′-trimethoxychalcone] | 21 ± 2 | 35 ± 2 | 22 |  |  |  | 
39 | CN(C)c1ccc(/C=C/C(=O)c2ccc(O)cc2)cc1 [4-N(CH3)2-4′-OH] |  |  |  | 79 ± 6 | 130 ± 13 |  | 
40 | O=C(/C=C/c1ccc(F)cc1)c1ccc(F)cc1 [4′,4-F, 4,4′-difluorochalcone] | 15 ± 2 | 22 ± 1 | 43 |  |  |  | 
41 | O=C(/C=C/c1ccc([N+](=O)[O-])cc1)c1ccc([N+](=O)[O-])cc1 [4′,4-NO2, 4,4′-dinitro-chalcone] |  |  |  |  |  |  | IC50 ([1]; Leishmania): 26 ± 4 µM; IC50 ([2]; Homo sapiens, Lymphocyte): 51 ± 3 µM
42 | CN(C)c1ccc(C(=O)/C=C/c2ccc([N+](=O)[O-])cc2)cc1 [4′-N(CH3)2-4-NO2, 4-nitro-4′-dimethylaminochalcone] |  |  | 93 |  |  |  | 
43 | O=C(/C=C/c1ccc(F)cc1)c1ccc(C2CCCCC2)cc1 [4′-cC6H11-4-F, 4-fluoro-4′-cyclohexylchalcone] | 27 ± 2 | 74 ± 2 |  |  |  |  | 
